Data: patent publication US6720423B2, “Dihydrobenzofuran and dihydrobenzothiophene 2,4-pentadienoic acid derivatives having selective activity for retinoid X (RXR) receptors” (Allergan, Inc., priority 2002, dated 2004)

How the values were obtained:
RXRβ [1] = biological target: T1, RXRβ (UniProt P28704); test: ligand binding assay, RXRβ; parameters: other: RXRβ; last entry of cell; settings: last entry of cell, read-out: RXR Bind Ki (nM) β
T1 sequence (P28704 1-520): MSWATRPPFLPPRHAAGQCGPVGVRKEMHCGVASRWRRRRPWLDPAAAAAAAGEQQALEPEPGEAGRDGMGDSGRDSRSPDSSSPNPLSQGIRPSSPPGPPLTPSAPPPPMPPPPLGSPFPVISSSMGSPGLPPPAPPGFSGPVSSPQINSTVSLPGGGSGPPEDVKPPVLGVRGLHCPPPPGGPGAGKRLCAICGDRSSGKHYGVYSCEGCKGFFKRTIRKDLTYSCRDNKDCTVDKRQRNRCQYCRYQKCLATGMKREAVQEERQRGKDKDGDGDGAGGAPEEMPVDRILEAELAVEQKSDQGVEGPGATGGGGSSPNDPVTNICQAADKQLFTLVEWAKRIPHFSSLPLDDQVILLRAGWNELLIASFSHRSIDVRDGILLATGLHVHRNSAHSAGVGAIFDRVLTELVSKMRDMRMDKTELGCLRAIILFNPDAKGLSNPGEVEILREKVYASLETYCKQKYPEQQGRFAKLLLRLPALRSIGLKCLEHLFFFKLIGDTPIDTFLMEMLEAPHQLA
Excerpt: (§1) A holoreceptor transactivation assay and a ligand binding assay which measure the antagonist/agonist like activity of the compounds of the invention, or their ability to bind to the several retinoid receptor subtypes, respectively, are described in published PCT Application No. WO WO93/11755 (particularly on pages 30-33 and 37-41) published on Jun. 24, 1993, the specification of which is also incorporated herein by reference. A detailed experimental procedure for holoreceptor transactivations has been described by Heyman et al. Cell 68, 397-406, (1992); Allegretto et al. J. Biol. Chem. 268, 26625-26633, and Mangelsdorf et al. The Retinoids: Biology, Chemistry and Medicine, pp 319-349, Raven Press Ltd., New York, which are expressly incorporated herein by reference. The results obtained in this assay are expressed in EC50 numbers, as they are also in the chimeric receptor transactivation assay. The results of ligand binding assay are expressed in Kd numbers. (See Cheng et al. Biochemical Pharmacology Vol. 22 pp 3099-3108, expressly incorporated herein by reference.)

RXRγ = biological target: T2, RXRγ (UniProt P28705); test: ligand binding assay, RXRγ; parameters: other: RXRγ; last entry of cell; settings: last entry of cell, read-out: RXR Bind Ki (nM) γ
T2 sequence (P28705 1-463): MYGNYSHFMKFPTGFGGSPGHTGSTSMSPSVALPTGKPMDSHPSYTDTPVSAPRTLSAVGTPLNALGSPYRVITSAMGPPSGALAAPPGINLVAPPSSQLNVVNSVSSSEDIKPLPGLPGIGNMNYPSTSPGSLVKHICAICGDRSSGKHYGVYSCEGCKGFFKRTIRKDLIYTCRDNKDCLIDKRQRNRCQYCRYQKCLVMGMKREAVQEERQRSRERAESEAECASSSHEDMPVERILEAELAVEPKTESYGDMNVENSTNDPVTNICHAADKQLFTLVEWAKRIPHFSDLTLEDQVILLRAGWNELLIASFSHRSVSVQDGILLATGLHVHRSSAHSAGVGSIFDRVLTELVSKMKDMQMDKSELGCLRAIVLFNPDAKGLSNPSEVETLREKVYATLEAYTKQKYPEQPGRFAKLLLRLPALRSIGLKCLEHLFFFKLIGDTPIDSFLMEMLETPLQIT
Excerpt: as §1

RXRα [2] = biological target: T3, RXRα (Homo sapiens, UniProt P19793); test: ligand binding assay, RXRα; settings: last entry of cell, read-out: RXR Bind Ki (nM) α
T3 sequence (P19793 1-462): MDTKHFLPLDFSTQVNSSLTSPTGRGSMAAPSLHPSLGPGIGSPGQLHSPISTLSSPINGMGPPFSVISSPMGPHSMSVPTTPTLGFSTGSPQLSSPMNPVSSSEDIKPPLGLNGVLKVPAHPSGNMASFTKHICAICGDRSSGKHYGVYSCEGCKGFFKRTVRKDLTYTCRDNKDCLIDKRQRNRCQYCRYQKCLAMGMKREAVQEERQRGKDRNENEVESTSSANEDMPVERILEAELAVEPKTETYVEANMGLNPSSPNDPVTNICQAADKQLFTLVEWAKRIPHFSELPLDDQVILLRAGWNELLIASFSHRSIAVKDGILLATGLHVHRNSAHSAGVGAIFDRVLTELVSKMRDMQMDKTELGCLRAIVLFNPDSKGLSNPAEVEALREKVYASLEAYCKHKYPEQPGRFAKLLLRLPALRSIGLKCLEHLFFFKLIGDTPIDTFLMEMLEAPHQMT
Excerpt: as §1

RXRα [3] = biological target: T4, RXRα (Homo sapiens, UniProt P19793); test: receptor transactivation assay, RXRα; format: cell-based; settings: first entry of cell, read-out: RXR Trans. EC50 (nM) α
T4 construct: the only RXRα plasmid printed
T4 sequence (P19793 227-462 limits assumed): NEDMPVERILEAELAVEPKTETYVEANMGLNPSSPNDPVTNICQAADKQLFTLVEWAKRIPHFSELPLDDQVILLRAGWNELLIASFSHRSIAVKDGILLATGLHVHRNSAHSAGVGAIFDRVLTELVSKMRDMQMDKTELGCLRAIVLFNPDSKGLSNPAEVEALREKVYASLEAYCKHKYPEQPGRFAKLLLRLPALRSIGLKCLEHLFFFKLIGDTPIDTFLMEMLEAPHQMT
Excerpt: as §1

RARβ = biological target: T5, RARβ (Homo sapiens, UniProt P10826); test: ligand binding assay, RARβ; settings: second entry of cell, read-out: RAR Bind. Ki (nM) β
T5 sequence (P10826 1-455): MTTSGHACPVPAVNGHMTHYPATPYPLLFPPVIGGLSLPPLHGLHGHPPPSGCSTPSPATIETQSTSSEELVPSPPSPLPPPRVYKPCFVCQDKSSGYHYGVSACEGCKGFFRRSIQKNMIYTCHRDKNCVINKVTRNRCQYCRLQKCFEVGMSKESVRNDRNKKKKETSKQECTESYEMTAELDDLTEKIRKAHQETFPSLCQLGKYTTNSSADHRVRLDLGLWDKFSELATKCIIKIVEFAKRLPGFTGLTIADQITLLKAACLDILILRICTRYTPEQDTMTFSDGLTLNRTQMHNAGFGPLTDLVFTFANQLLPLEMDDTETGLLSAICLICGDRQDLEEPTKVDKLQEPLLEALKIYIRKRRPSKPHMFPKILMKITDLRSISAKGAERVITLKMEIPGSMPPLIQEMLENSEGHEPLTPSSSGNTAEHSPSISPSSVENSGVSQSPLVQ
Excerpt: as §1

RXRβ [4] = biological target: T1, RXRβ; test: receptor transactivation assay, RXRβ; format: cell-based; parameters: RXR Trans; other: RXRβ; first entry of cell; settings: for EC50: first entry of cell, read-out: RXR Trans. EC50 (nM) β; for RXR Trans. β, number in parentheses after EC50: parenthesised number, not defined in the patent
Excerpt: as §1

| SMILES | Ki (RXRβ [1]) [nM] | Ki (RXRγ) [nM] | Ki (RXRα [2]) [nM] | EC50 (RXRα [3]) [nM] | Ki (RARβ) [nM] | EC50 (RXRβ [4]) [nM] | RXR Trans. β, number in parentheses after EC50 (RXRβ [4]) |
| --- | --- | --- | --- | --- | --- | --- | --- |
| CC(/C=C/[C@@H]1C[C@]1(C)c1ccc2c(c1)C(C)(C)CO2)=C\C(=O)O [Compound 2, (6S,7S)-7-[5-(3,3-Dimethyl-2,3-dihydro-benzofuranyl)]-6.7-methano-3-methyl-octa-2E,4E-dienoic Acid] | 21.1 | 35 | 7.8 | 1.1 | > 10000 | 9.8 | 106 |
| CCCCCCc1cc([C@@]2(C)C[C@H]2/C=C/C(C)=C/C(=O)O)cc2c1OCC2(C)C [Compound 18, (6S,7S)-7-[5-(3,3-Dimethyl-7-hexyl-2,3-dihydro-benzofuranyl)]-6,7-methano-3-methyl-octa-2E,4E-dienoic acid] | 5.1 | 2 | 1.9 | 0.25 | 15000 | 2.8 | 96 |
| CC(/C=C/[C@@H]1C[C@]1(C)c1cc(CC(C)(C)C)c2c(c1)C(C)(C)CO2)=C\C(=O)O [Compound 12, 5-{(1S,2S) 2-[7-(2,2-Dimethyl-propyl)-3,3-dimethyl-2,3-dihydro-benzofuran-5-yl]-2-methyl-cyclopropyl}-3-methyl-penta-2E,4E-dienoic Acid] | 1.5 | 0.7 | 0.2 | 0.246 | 9510 | 1.67 | 93 |
| CCCCC(=O)CCc1cc([C@@]2(C)C[C@H]2/C=C/C(C)=C/C(=O)O)cc2c1OCC2(C)C [Compound 40] | 69 | 70 | 41 | 330 | 22000 | 2040 | 103 |
| CC(/C=C/[C@@H]1C[C@]1(C)c1cc(-c2c(C)cccc2C)c2c(c1)C(C)(C)CO2)=C\C(=O)O [Compound 24, 5-{(1 S 2S)-2-[7-(2,6-Dimethyl-phenyl)-3,3-dimethyl-2,3-dihydro-benzofuran-5-yl]-2-methyl-cyclopropyl}-3-methyl-penta-2E,4E-dienoic acid] | 2.6 | 4.8 | 0.7 | 0.52 | > 10000 | 6.7 | 125 |
| COc1ccc(-c2cc([C@@]3(C)C[C@H]3/C=C/C(C)=C/C(=O)O)cc3c2OCC3(C)C)cc1 [Compound 32, (E)-3-((E)-2-{(1S,2S)-2-[7-(4-Methoxy-phenyl)-3,3-dimethyl-2,3-dihydro-benzofuran-5-yl]-2-methyl-cyclopropyl}-vinyl)-but-2-enoic acid] | 926 | 227 | 66 | 581 | 15000 | > 1000 |  |
| CC(/C=C/[C@@H]1C[C@@H]1c1ccc2c(c1)C(C)(C)CO2)=C\C(=O)O [Compound 36, (E)-3-{(E)-2-F[(1S,2S)-2-(3,3-Dimethyl-2,3-dihydro-benzofuran-5-yl)-cyclopropyl]-vinyl}-but-2-enoic acid] | 312 | 602 | 114 | 609 | > 10000 | > 1000 |  |
| CC(/C=C/[C@@H]1C[C@]1(C)c1cc(CC2CCCCC2)c2c(c1)C(C)(C)CO2)=C\C(=O)O [Compound 16, (6S,7S)-7-[5-(7-Cyclohexylmethyl-3,3-dimethyl-2,3-dihydro-benzofuranyl)]-6,7-methano-3-methyl-octa-2E,4E-dienoic Acid] | 1.9 | 1.9 | 0.3 | 0.215 | 9290 | 1.15 | 85 |
| CC(/C=C/[C@@H]1C[C@]1(C)c1cc(-c2ccc(F)cc2)c2c(c1)C(C)(C)CO2)=C\C(=O)O [Compound 34, (E)-3-((E)-2-{(1S,2S)-2-[7-(4-Fluoro-phenyl)-3,3-dimethyl-2,3-dihydro-benzofuran-5-yl]-2-methyl-cyclopropyl}-vinyl)-but-2-enoic acid] | 4 | 1.5 | 0.5 | 0.37 | 8750 | 4.55 | 93 |
| CCCCCCCc1ccccc1-c1cc([C@@]2(C)C[C@H]2/C=C/C(C)=C/C(=O)O)cc2c1OCC2(C)C [Compound 28] | 111 |  | 35 | 594 | 3740 | > 1000 |  |
| CC(/C=C/[C@@H]1C[C@]1(C)c1cc(C)c2c(c1)C(C)(C)CO2)=C\C(=O)O [Compound 4, (6S,7S)-7-[5-(3,3,7-Trimethyl-2,3-dihydro-benzofuranyl)]-6,7-methano-3-methyl-octa-2E,4E-dienoic acid] | 74 | 9.9 | 6.3 | 2.9 | > 10000 | 21 | 108 |
| CC(/C=C/[C@@H]1C[C@]1(C)c1cc(-c2ccc(C(C)(C)C)cc2)c2c(c1)C(C)(C)CO2)=C\C(=O)O [Compound 30, 5-{(1S, 2S)-2-[7-(4-tert-Butyl-phenyl)-3,3-dimethyl-2,3-dihydro-benzofuran-5-]-2-methyl-cyclopropyl}-3-methyl-pent-2E,4E-dienoic Acid] | 441 | 69.9 | 129 | 1520 | > 10000 | > 1000 | 50 |
